This note sets out measurements from US20170280720A1, “ARGININE […] INHIBITORS AND USES THEREOF” (EPIZYME, INC., priority 2014, published 2017).

One may read the IC50 as the point on the concentration scale where inhibition reaches its midpoint.

One test concerns the target T1, Human CARM1 (PRMT4) (Homo sapiens, UniProt Q86X55).
T1 construct: Flag-CARM1-His; made in house; host or cells: HEK 293F cells (BacMam baculovirus, pFastBacMam)
T1 sequence (Q86X55 2-585 isoform Q86X55-1): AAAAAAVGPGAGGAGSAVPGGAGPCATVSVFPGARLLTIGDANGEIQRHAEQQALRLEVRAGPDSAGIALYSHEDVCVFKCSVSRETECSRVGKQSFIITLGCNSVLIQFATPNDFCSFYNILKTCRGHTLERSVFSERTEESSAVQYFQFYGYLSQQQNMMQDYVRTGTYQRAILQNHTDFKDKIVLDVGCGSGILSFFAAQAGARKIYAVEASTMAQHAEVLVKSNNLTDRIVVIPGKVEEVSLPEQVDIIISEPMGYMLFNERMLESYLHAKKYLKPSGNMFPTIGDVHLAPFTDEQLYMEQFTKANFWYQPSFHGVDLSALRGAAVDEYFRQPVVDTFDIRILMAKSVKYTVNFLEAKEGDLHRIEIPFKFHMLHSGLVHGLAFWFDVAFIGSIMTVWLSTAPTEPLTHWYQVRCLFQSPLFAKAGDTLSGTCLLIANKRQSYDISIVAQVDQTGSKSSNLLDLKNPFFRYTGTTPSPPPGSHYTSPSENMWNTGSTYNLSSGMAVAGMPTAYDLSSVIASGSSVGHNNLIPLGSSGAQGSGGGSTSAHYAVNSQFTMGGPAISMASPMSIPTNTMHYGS
Nature of the test: CARM1 biochemical assay (3H-SAM Flashplate, peptide substrate). The following applies: read-out: CARM1_ IC50. The gist of the method:
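FLAG/His-tagged human CARM1 (isoform 1, Δ539-561, baculovirus-expressed), 0.25 nM, preincubated 30 min at room temperature with compound (2% DMSO) in 20 mM Bicine pH 7.6, then reacted with 30 nM 3H-SAM and 250 nM biotinylated H3 16-30 peptide (R26 monomethyl). Stopped with 300 uM cold SAM; labelled peptide captured on streptavidin Flashplate; % inhibition versus DMSO and 1 mM SAH controls fitted to a 4- or 3-parameter curve.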

Another test concerns the target PRMT5 (Homo sapiens, UniProt O14744). Nature of the test: PRMT5 IC50 (Table 2; no method described). The following applies: read-out: PRMT5_ IC50. Type of test: biochemical.

Chain of PRMT5 (O14744 whole entry, species assumed): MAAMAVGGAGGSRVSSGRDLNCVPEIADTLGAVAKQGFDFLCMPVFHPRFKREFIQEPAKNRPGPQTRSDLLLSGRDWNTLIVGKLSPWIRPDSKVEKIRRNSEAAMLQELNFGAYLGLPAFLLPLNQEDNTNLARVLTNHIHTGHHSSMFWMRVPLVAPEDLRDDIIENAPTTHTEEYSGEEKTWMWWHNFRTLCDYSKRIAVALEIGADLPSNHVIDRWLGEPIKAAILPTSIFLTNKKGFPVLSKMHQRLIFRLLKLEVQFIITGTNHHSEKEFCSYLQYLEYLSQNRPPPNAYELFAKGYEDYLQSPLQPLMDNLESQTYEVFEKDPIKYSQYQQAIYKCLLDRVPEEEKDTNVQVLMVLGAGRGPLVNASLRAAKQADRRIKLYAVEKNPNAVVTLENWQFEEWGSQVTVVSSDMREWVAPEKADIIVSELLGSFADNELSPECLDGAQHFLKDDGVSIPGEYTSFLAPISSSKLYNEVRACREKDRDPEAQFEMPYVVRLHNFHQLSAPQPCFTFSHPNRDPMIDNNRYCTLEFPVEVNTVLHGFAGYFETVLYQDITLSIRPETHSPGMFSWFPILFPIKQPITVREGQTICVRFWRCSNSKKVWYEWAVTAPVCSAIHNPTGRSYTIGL
Chain of PRMT5 (Q9BQA1 whole entry partner, species assumed): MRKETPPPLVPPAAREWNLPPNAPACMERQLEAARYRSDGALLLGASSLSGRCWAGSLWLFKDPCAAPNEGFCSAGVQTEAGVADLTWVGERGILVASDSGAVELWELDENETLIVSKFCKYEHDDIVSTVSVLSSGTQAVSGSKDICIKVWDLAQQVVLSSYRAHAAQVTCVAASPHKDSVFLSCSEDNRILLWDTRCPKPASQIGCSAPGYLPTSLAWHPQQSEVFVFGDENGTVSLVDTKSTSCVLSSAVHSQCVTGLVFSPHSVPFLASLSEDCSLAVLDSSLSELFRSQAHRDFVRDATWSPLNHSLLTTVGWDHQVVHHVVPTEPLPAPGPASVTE

For the compound `CNCCN(C)Cc1cccc(-c2cc(C(=O)N3CCc4ccccc4C3)c3cnn(C(C)C)c3n2)c1` [Compound 42], the IC50 on Human CARM1 (PRMT4) came to 84.1 nM. Turning to `CNCCN(C)Cc1cccc(-c2cc(N)c3cnn(C(C)C)c3n2)c1` [Compound 151], the IC50 on Human CARM1 (PRMT4) came to 92.1 nM. Still for that read-out and setting: the value for `CNCCN(C)Cc1cccc(-c2cc(NS(=O)(=O)C(F)(F)F)c3cnn(C(C)C)c3n2)c1` [Compound 164] was 358 nM. Take `CN(CCN)Cc1ccc(-c2ccc3ncn(-c4ccccc4)c3c2)cc1` [Compound 19]: the values for the IC50 at Human CARM1 (PRMT4) and at PRMT5 were 12600 nM and 34700 nM, respectively.

As for `CNCCN(C)Cc1cccc(-c2cc(C(=O)NCc3cnn(C)c3C)c3cnn(C(C)C)c3n2)c1` [Compound 137], the IC50 at Human CARM1 (PRMT4) is 6.06 nM. On to `N#Cc1cccc(Cn2cnc3ccc(-c4ccc(CNCCN)cc4)cc32)c1` [Compound 145], for which the IC50 is 8000 nM on Human CARM1 (PRMT4) and 79.9 nM at PRMT5. For the compound `CC(C)n1ncc2c(C(=O)NCC3CCN(C)CC3)cc(-c3cccc(CN(C)CCN(C)C)c3)nc21` [Compound 162], the IC50 was 91.6 nM at Human CARM1 (PRMT4) and 50000 nM at PRMT5.

On to `CNCCN(C)Cc1cccc(-c2cc(Oc3ccccc3)c3cnn(C(C)C)c3n2)c1` [Compound 45], for which the IC50 on Human CARM1 (PRMT4) was determined as 84.1 nM. For the compound `CN(CCN)Cc1cccc(-c2nc(NCc3nccs3)c3cnn(C4CC4)c3n2)c1` [Compound 1], the IC50 on Human CARM1 (PRMT4) worked out at 3.56 nM. Still for that read-out and setting: the value for `CNCCN(C)Cc1cccc(-c2cc(C(=O)NCc3ccccc3F)c3cnn(C(C)C)c3n2)c1` [Compound 38] was 18.7 nM; that for `CCS(=O)(=O)Nc1cc(-c2cccc(CN(C)CCNC)c2)nc2c1cnn2C(C)C` [Compound 161] was 169 nM. Turning to `CNCCN(C)Cc1cccc(-c2cc(NS(C)(=O)=O)c3cnn(C(C)C)c3n2)c1` [Compound 169], the concentration for half-maximal inhibition (IC50) on Human CARM1 (PRMT4) was determined as 125 nM. The same measure, in the same setting: then `CC(C)n1ncc2c(C(=O)NCC3CCOCC3)cc(-c3cccc(CN(C)CCNC4CC4)c3)nc21` [Compound 167], with 98.2 nM; and `CC(C)n1ncc2c(C(=O)N[C@@H](C)c3ccccc3)cc(-c3cccc(CN(C)CCN)c3)cc21` [Compound 10], with 45.2 nM; and `CCn1ncc2c(C(=O)N[C@@H](C)c3ccccc3)cc(-c3cccc(CN(C)CCNC)c3)nc21` [Compound 33], with 79.7 nM.

Regarding `CN(CCN)Cc1cccc(-c2cc(C(=O)NC3CCOCC3)c3cnn(C4CC4)c3n2)c1` [Compound 142], the IC50 at Human CARM1 (PRMT4) turned out to be 9.43 nM. The same measure, in the same setting: then `CC(C)n1ncc2c(N3CCOCC3)cc(-c3cccc(CN(C)CCNC4CC4)c3)nc21` [Compound 163], with 161 nM; and `CNCCN(C)Cc1cccc(-c2cc(NC3CC3)c3cnn(C(C)C)c3n2)c1` [Compound 11], with 32.8 nM.

Consider `CNCCN(C)Cc1cccc(-c2cc(C(=O)NCC3CCOCC3)c3cnn(C4CC4)c3n2)c1` [Compound 26], for which the IC50 at Human CARM1 (PRMT4) came to 26.6 nM. The same measure, in the same setting: then `CC(C)n1ncc2c(C(=O)N3CCCCC3)cc(-c3cccc(CN(C)CCN)c3)nc21` [Compound 43], with 176 nM. Same read-out and setting: then `NCCNCc1ccc(-c2cnc3c(c2)OCC(=O)N3)cc1` [Compound 358], with 6290 nM. Same read-out and setting: then `CNCCN(C)Cc1cccc(-c2cc(NS(C)(=O)=O)c3cnn(C(C)C)c3n2)c1` [Compound 170], with 264 nM; and `CNCCN(C)Cc1cccc(-c2cc(C(=O)NCC3CCOCC3)c3cnn(C4CCC4)c3n2)c1` [Compound 21], with 43.9 nM; and `CNCCN(C)Cc1cccc(-c2cc(C(=O)NCc3c(F)cccc3F)c3cnn(C(C)C)c3n2)c1` [Compound 47], with 22.4 nM. With `CN(CCN)Cc1cccc(-c2cc(C(=O)NC3CCOCC3)c3cnn(CC(F)(F)F)c3n2)c1` [Compound 144], the IC50 at Human CARM1 (PRMT4) came out at 26.7 nM. Still for that read-out and setting: the value for `CNCCN(C)Cc1cccc(-c2cc(OCC(F)(F)F)c3cnn(C(C)C)c3n2)c1` [Compound 154] was 46.9 nM; that for `CNCCN(C)Cc1cccc(-c2cc(NC(=O)NC)c3cnn(C(C)C)c3n2)c1` [Compound 138] was 18.7 nM. Still for that read-out and setting: the value for `Cc1nn(C(C)C)c2nc(-c3cccc(CN(C)CCN)c3)cc(N3CCOCC3)c12` [Compound 22, N1-(3-(1-isopropyl-3-methyl-4-morpholino-1H-pyrazolo[3,4-b]pyridin-6-yl)benzyl)-N1-methylethane-1,2-diamine] was 8.97 nM; that for `CNCCN(C)Cc1cccc(-c2ccc3ncn(C4CCOCC4)c3c2)c1` [Compound 30] was 852 nM.

With `CN(CCN)Cc1cccc(-c2cc(C(=O)NC3CCOCC3)c3cnn(C)c3n2)c1` [Compound 158], the IC50 on Human CARM1 (PRMT4) was determined as 38.5 nM. Still for that read-out and setting: then `CC(C)n1ncc2c(C(=O)NCc3ccccc3)cc(-c3cccc(CNCCN)c3)cc21` [Compound 134], with 334 nM; and `CC(C)n1ncc2c(C(=O)NCc3ccccc3)cc(-c3cccc(CN(C)CCN)c3)cc21` [Compound 14], with 135 nM; and `CNCCN(C)Cc1cccc(-c2cnc3c(c2)OCC(=O)N3)c1` [Compound 355], with 10000 nM.

Turning to `CNCCN(C)Cc1cccc(-c2ccc3ncn(C(C)C)c3c2)c1` [Compound 28], the IC50 at Human CARM1 (PRMT4) is 12200 nM. The same measure, in the same setting: then `CNCCN(C)Cc1cccc(-c2cc(NS(=O)(=O)N(C)C)c3cnn(C(C)C)c3n2)c1` [Compound 139], with 37.3 nM. Take `CC(C)n1cc2c(N)cc(-c3cccc(CN(C)CCN)c3)nc2n1` [Compound 13]: the IC50 on Human CARM1 (PRMT4) turned out to be 1710 nM. Still for that read-out and setting: the value for `CC(C)n1ncc2c(C(=O)NCc3ccccc3)cc(-c3cccc(CNCCN)c3)nc21` [Compound 155] was 115 nM. Same read-out and setting: then `CC(C)n1ncc2c(C(=O)N3CCCCC3)cc(-c3cccc(CNCCN)c3)nc21` [Compound 153], with 195 nM; and `CC(C)n1ncc2c(C(=O)NC3CCOCC3)cc(-c3cccc(CN(C)CCN)c3)nc21` [Compound 148], with 10.9 nM.

`CC(C)n1ncc2c(NC3CC3)cc(-c3cccc(CN(C)CCN)c3)nc21` [Compound 41]: the IC50 on Human CARM1 (PRMT4) turned out to be 13.4 nM. Take `CC(C)n1ncc2c(C(=O)NCc3ccc(F)cc3)cc(-c3cccc(CN(C)CCN)c3)nc21` [Compound 25]: the IC50 at Human CARM1 (PRMT4) was 32.9 nM.

Consider `CC(C)n1ncc2c(C(=O)NCc3c(F)cccc3F)cc(-c3cccc(CN(C)CCN)c3)nc21` [Compound 37], for which the IC50 on Human CARM1 (PRMT4) was determined as 5.47 nM. With `CNCCN(C)Cc1cccc(-c2nc(NCc3cc(C)nn3C)c3cnn(C4CC4)c3n2)c1` [Compound 17], the IC50 on Human CARM1 (PRMT4) is 8.42 nM.

As to `CNCCN(C)Cc1cccc(-c2ccc3cn(Cc4ccccc4)nc3n2)c1` [Compound 35], the IC50 at Human CARM1 (PRMT4) is 4960 nM. For `CC(C)n1cnc2cc(-c3ccc(CN(C)CCN)cc3)ccc21` [Compound 46], the IC50 on Human CARM1 (PRMT4) worked out at 10000 nM. Regarding `CNCCN(C)Cc1cccc(-c2cnc3c(c2)c(Br)nn3CC2CCOCC2)c1` [Compound 39], the IC50 on Human CARM1 (PRMT4) amounted to 6790 nM.

Regarding `CNCCN(C)Cc1cc(-c2cc(C(=O)NC3CCOCC3)c3cnn(C(C)C)c3n2)ccc1F` [Compound 130], the IC50 at Human CARM1 (PRMT4) was found to be 131 nM.

As for `CNCCN(C)Cc1cccc(-c2nc(NC3CCOCC3)c3cnn(C(C)(C)C)c3n2)c1` [Compound 27, N1-(3-(1-tert-butyl-4-(tetrahydro-2H-pyran-4-ylamino)-1H-pyrazolo[3,4-d]pyrimidin-6-yl)benzyl)-N1,N2-dimethylethane-1,2-diamine], the IC50 on Human CARM1 (PRMT4) is 4.25 nM. Take `CCC(=O)c1cc(-c2cccc(CN(C)CCNC)c2)nc2c1cnn2C(C)C` [Compound 128]: the IC50 on Human CARM1 (PRMT4) amounted to 30.8 nM. As for `CNC(=O)Nc1cc(-c2cccc(CN(C)CCN)c2)nc2c1cnn2C(C)C` [Compound 126], the IC50 at Human CARM1 (PRMT4) is 7.96 nM. Still for that read-out and setting: the value for `CC(C)n1ncc2c(C(=O)NCc3ccccc3F)cc(-c3cccc(CNCCN)c3)nc21` [Compound 159] was 175 nM; that for `CNCCN(C)Cc1cccc(-c2ccc3c(c2)ncn3CCOC)c1` [Compound 34] was 10000 nM; that for `CNCCN(C)Cc1cccc(-c2cc(C(=O)N[C@@H](C)c3ccccc3)c3cn[nH]c3n2)c1` [Compound 12] was 79.3 nM. On the same count and under the same terms, then `CC(C)n1ncc2c(C(=O)NCc3c(F)cccc3F)cc(-c3cccc(CNCCN)c3)nc21` [Compound 168], with 23.3 nM; and `CN(CCN)Cc1cccc(-c2nc(NCc3cccnc3)c3cnn(C4CC4)c3n2)c1` [Compound 40], with 7.14 nM. Regarding `CNCCN(C)Cc1cccc(-c2cc(Nc3ncc(C)s3)c3cnn(C(C)C)c3n2)c1` [Compound 20], on Human CARM1 (PRMT4), the IC50 was 14 nM. Consider `CNCCN(C)Cc1cccc(-c2cc(NC(=O)NC3CCOCC3)c3cnn(C(C)C)c3n2)c1` [Compound 133], for which the IC50 on Human CARM1 (PRMT4) came to 12 nM. Still for that read-out and setting: then `CNCCN(C)Cc1cccc(-c2cc(C(=O)NC3CCOCC3)c3cnn(C4CCC4)c3n2)c1` [Compound 29], with 92.4 nM; and `CC(C)n1cnc2cc(-c3cccc(CN(C)CCN)c3)ccc21` [Compound 32], with 7040 nM; and `CN(CCN)Cc1cccc(-c2nc(NC3CCOCC3)c3cnn(C(C)(C)C)c3n2)c1` [Compound 18], with 5.83 nM.
